In brackets after ≈: the same amount, converted by molar mass. Read-outs that look alike come from different tables or passages of the source.
Assays:
NoSpin HepaRG cells = experiment: HepaRG cytotoxicity, MTT assay EC50; assay type: cell-based, human; details: Homo sapiens, HepaRG; cytotoxicity EC50, Table 9
Procedure: Additionally, the antimicrobial compounds were analyzed for cytotoxicity. […] We utilized the standard MTT assay (Promega CellTiter 96) and GraphPad Prism 7 software to determine EC50 values for each analogue. Briefly, 20,000 HepG2 cells in 200 μl of the ATCC recommended media were seeded in each well of a 96-well plate with a moisture barrier created in the outermost wells. The cells were allowed to attach overnight at 37° C., and then observed under phase contrast microscopy for proper morphological characteristics. […] Once incubations were complete, the spectrophotometric absorbance of the samples was measured at a wavelength of 595 nm. […] For the HepaRG assay, NoSpin HepaRG™ cells (Lonza, cat #NSHPRG) were thawed and plated with 20,000 cells per well. They were allowed to attach for 4 h (optimal DME profile per Lonza's testing) before dosing following the identical protocol as above.

Bacillus subtilis = Bacillus subtilis MIC / MBC; assay type: cell-based; details: for MBC: Bacillus subtilis NRRL: B-571, minimum bactericidal concentration; for MIC: Bacillus subtilis, Bacillus subtilis (Ehrenberg 1835) Cohn 1872 NRRL: B-571, read-out: MIC
Bacillus thuringiensis = assay type: cell-based; details: Bacillus thuringiensis Berliner ATCC: 10792; for MIC: Bacillus thuringiensis, read-out: MIC
Trichophyton rubrum = experiment: MIC against Trichophyton rubrum; assay type: cell-based; details: Trichophyton rubrum Castellani Sabouraud ATCC: 28188; read-out: MIC
Candida glabrata = Candida glabrata MIC / MFC; assay type: cell-based; details: Nakaseomyces glabratus; for MFC: read-out: MFC; for MIC: read-out: MIC
[1] = tested on: Burkholderia thailandensis Brett et al ATCC: 700388; experiment: microbe, parasite or virus in culture; assay type: cell-based
[2] = tested on: Francisella tularensis strains; experiment: microbe, parasite or virus in culture; assay type: cell-based
C. albicans = experiment: Candida albicans MIC / MFC; assay type: cell-based
N. gonorrhoeae = N. gonorrhoeae MIC; assay type: cell-based; details: Neisseria gonorrhoeae
[3] = tested on: Francisella tularensis subsp. Holarctica Strain LVSR NR-597; experiment: microbe, parasite or virus in culture; assay type: cell-based
[4] = Candida glabrata #584 (Table 2), minimum fungicidal concentration
[5] = Candida glabrata #584 (Table 2)

Question: With `Fc1ccc(Sc2c[nH]c3ccc(Br)cc23)cc1` [Compound 174P, 5-bromo-3-((4-fluorophenyl)thio)-1H-indole] as the compound, how does the EC50 (NoSpin HepaRG cells) read?
Answer: The EC50 was 38.3 µg/mL (≈ 119 µM).

Question: What about the MBC (Bacillus subtilis) of the same compound?
Answer: The MBC was 3.13 µg/mL (≈ 9.71 µM).

Question: What about the MIC (Bacillus subtilis) of the same compound?
Answer: The MIC was 1.56 µg/mL (≈ 4.84 µM).

Question: And the MBC (Bacillus thuringiensis)?
Answer: The MBC was over 50 µg/mL.

Question: And the MIC (Bacillus thuringiensis)?
Answer: Its MIC is 1.56 µg/mL (≈ 4.84 µM).

Question: And the MIC (Trichophyton rubrum)?
Answer: The MIC was 2.01 µg/mL (≈ 6.24 µM).

Question: And the MFC (Candida glabrata; [4])?
Answer: The MFC was over 50 µg/mL.

Question: What about the MIC (Candida glabrata; [5]) of the same compound?
Answer: The MIC was 3.13 µg/mL (≈ 9.71 µM).

Question: And the MIC [1]?
Answer: The MIC was over 50 µg/mL.

Question: Which results are given for `Clc1ccc(Sc2c[nH]c3ccc(Br)cc23)c(Cl)c1` [Compound 174V, 5-bromo-3-((2,4-dichlorophenyl)thio)-1H-indole]?
Answer: EC50 (NoSpin HepaRG cells): 24.8 µg/mL (≈ 66.5 µM); MBC (Bacillus subtilis): 2.5 µg/mL (≈ 6.7 µM); MIC (Bacillus subtilis): 1.25 µg/mL (≈ 3.35 µM); MBC (Bacillus thuringiensis): 2.5 µg/mL (≈ 6.7 µM); MIC (Bacillus thuringiensis): 1.25 µg/mL (≈ 3.35 µM); MIC (Trichophyton rubrum): 0.58 µg/mL (≈ 1.55 µM); MFC (Candida glabrata; [4]): 12.5 µg/mL (≈ 33.5 µM); MIC (Candida glabrata; [5]): 3.13 µg/mL (≈ 8.39 µM); MIC [1]: > 50 µg/mL

Question: What does the source list for `Nc1cc(Br)ccc1Sc1c[nH]c2ccc(Br)cc12` [Compound 174X, 5-bromo-2-((5-bromo-1H-indol-3-yl)thio)aniline]?
Answer: MIC50 [2]: 4 µg/mL (≈ 10 µM); MIC ([2]; read-out: F. tularensis BSL-3 MIC, Strain 100): 8 µg/mL (≈ 20.1 µM); MIC ([2]; read-out: F. tularensis BSL-3 MIC, strain HN-63): 4 µg/mL (≈ 10 µM); MIC ([2]; read-out: F. tularensis BSL-3 MIC, strain LVS): > 8 µg/mL; MIC ([2]; read-out: F. tularensis BSL-3 MIC, strain MA00-2987): 4 µg/mL (≈ 10 µM); MIC ([2]; read-out: F. tularensis BSL-3 MIC, strain MO #1): 2.67 µg/mL (≈ 6.71 µM); MIC ([2]; read-out: F. tularensis BSL-3 MIC, strain MO #2): 2 µg/mL (≈ 5.02 µM); MIC ([2]; read-out: F. tularensis BSL-3 MIC, strain MO #3): 4 µg/mL (≈ 10 µM); MIC ([2]; read-out: F. tularensis BSL-3 MIC, strain OR-96): 4 µg/mL (≈ 10 µM); MIC ([2]; read-out: F. tularensis BSL-3 MIC, strain SCHU S4): 4 µg/mL (≈ 10 µM); MIC ([2]; read-out: F. tularensis BSL-3 MIC, strain WY-96): 3 µg/mL (≈ 7.54 µM); MIC ([2]; read-out: MAX, highest MIC over the Francisella tularensis strains): > 8 µg/mL; MIC ([2]; read-out: MIN, lowest MIC over the Francisella tularensis strains): 2 µg/mL (≈ 5.02 µM); EC50 (NoSpin HepaRG cells): 30.2 µg/mL (≈ 75.9 µM); MBC (Bacillus subtilis): > 10 µg/mL; MIC (Bacillus subtilis): 1.56 µg/mL (≈ 3.92 µM); MBC (Bacillus thuringiensis): 2.5 µg/mL (≈ 6.28 µM); MIC (Bacillus thuringiensis): 2.5 µg/mL (≈ 6.28 µM); MFC (C. albicans; C. albicans strain #761, read-out: MFC): > 50 µg/mL; MIC (C. albicans; C. albicans strain #761, read-out: MIC): 12.5 µg/mL (≈ 31.4 µM); MFC (C. albicans; C. albicans strain #762, read-out: MFC): > 50 µg/mL; MIC (C. albicans; C. albicans strain #762, read-out: MIC): 12.5 µg/mL (≈ 31.4 µM); MIC (Trichophyton rubrum): 0.62 µg/mL (≈ 1.56 µM); MFC (Candida glabrata; C. glabrata strain #325): > 50 µg/mL; MIC (Candida glabrata; C. glabrata strain #325): 12.5 µg/mL (≈ 31.4 µM); MFC (Candida glabrata; [4]): 6.25 µg/mL (≈ 15.7 µM); MIC [1]: > 50 µg/mL

Question: How did the MIC (N. gonorrhoeae; strain #203) turn out when `Oc1ccccc1Sc1c[nH]c2ccc(C(F)(F)F)cc12` [Compound 177A, 2-((5-(trifluoromethyl)-1H-indol-3-yl)thio)phenol] was run?
Answer: Its MIC is 3.13 µg/mL (≈ 10.1 µM).

Question: And the MIC (N. gonorrhoeae; strain #205)?
Answer: Its MIC is 3.13 µg/mL (≈ 10.1 µM).

Question: What about the EC50 (NoSpin HepaRG cells) of the same compound?
Answer: Its EC50 is 24.1 µg/mL (≈ 77.9 µM).

Question: And the MIC (Bacillus subtilis)?
Answer: Its MIC is 0.39 µg/mL (≈ 1.26 µM).

Question: What about the MIC [3] of the same compound?
Answer: Its MIC is 0.78 µg/mL (≈ 2.52 µM).

Question: And the MIC (Candida glabrata; [5])?
Answer: The MIC was over 50 µg/mL.

Question: What about the MBC [1] of the same compound?
Answer: Its MBC is over 50 µg/mL.

Question: What about the MIC [1] of the same compound?
Answer: Its MIC is over 50 µg/mL.

Question: How did the MIC (N. gonorrhoeae; strain #203) turn out when `Nc1ccccc1Sc1c[nH]c2ccc(C(F)(F)F)cc12` [Compound 177C, 2-((5-(trifluoromethyl)-1H-indol-3-yl)thio)aniline] was run?
Answer: Its MIC is 3.13 µg/mL (≈ 10.2 µM).

Question: What about the MIC (N. gonorrhoeae; strain #205) of the same compound?
Answer: The MIC was 3.13 µg/mL (≈ 10.2 µM).

Question: And the EC50 (NoSpin HepaRG cells)?
Answer: The EC50 was 48.2 µg/mL (≈ 156 µM).

Question: And the MIC (Bacillus subtilis)?
Answer: Its MIC is 0.39 µg/mL (≈ 1.26 µM).

Question: What about the MIC [3] of the same compound?
Answer: The MIC was 3.13 µg/mL (≈ 10.2 µM).

Question: And the MIC (Candida glabrata; [5])?
Answer: The MIC was over 50 µg/mL.

Question: And the MBC [1]?
Answer: Its MBC is over 50 µg/mL.

Question: And the MIC [1]?
Answer: Its MIC is over 50 µg/mL.

Reference: US11180452B2, “Methods and compositions for selectively inhibiting pathogenic microbes” (priority 2019, dated 2021)
